Data: patent US20090018134A1, “Compounds - 945” (AstraZeneca AB, priority 2007, published 2009)

target: T1, mTOR (Homo sapiens, UniProt P42345); assay: In Vitro mTOR Kinase Assay (Echo), Test (a)(ii); assay type: biochemical; details: table of enzyme assay Test (a)(ii); read-out: Test (a)(ii) IC50
T1 construct: FLAG; made in house
Method in brief: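 Inhibition of truncated mTOR (1362-2549, FLAG-tagged, purified from stably transfected HEK293 cells) is measured as reduced AlphaScreen signal from a phospho-T389-recognising antibody bound to the biotinylated peptide product. Kinase incubation lasts 2 hours at room temperature. Potency is given as IC50.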

T1 sequence (P42345 1362-2549): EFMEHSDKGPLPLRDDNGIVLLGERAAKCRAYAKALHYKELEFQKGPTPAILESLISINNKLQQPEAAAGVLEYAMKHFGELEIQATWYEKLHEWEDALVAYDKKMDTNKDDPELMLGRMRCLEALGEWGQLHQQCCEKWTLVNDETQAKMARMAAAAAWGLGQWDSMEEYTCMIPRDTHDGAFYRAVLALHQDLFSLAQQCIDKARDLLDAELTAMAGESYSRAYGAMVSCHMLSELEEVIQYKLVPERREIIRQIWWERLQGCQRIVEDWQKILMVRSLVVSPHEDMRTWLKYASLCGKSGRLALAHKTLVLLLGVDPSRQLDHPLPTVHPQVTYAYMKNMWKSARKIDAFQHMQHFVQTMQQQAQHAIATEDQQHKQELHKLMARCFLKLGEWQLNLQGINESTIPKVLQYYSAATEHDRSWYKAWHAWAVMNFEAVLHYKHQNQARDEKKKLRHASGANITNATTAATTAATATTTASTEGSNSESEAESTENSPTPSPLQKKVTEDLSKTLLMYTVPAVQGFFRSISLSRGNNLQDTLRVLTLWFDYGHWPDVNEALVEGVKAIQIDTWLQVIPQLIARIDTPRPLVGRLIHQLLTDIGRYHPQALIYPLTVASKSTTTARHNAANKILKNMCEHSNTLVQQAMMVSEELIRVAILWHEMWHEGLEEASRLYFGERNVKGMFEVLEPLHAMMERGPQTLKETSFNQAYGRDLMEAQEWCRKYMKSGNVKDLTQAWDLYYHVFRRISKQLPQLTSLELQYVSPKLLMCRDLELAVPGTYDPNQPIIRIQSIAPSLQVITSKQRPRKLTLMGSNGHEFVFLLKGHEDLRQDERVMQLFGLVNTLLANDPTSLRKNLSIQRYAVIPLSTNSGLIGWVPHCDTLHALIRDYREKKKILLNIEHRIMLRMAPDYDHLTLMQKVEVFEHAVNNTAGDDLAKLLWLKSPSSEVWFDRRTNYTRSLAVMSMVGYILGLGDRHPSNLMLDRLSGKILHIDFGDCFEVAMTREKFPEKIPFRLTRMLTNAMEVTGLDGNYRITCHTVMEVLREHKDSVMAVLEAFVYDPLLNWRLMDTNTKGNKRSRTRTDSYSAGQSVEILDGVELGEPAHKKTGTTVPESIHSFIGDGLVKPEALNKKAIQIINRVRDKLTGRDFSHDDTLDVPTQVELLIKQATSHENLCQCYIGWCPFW

| Compound | IC50 |
| --- | --- |
| C[C@H]1COCCN1c1cc(C2(S(=O)(=O)c3cc(F)cc(F)c3)CCNCC2)nc(-c2ccc(NC(=O)NC3CC3)cc2)n1 [Example 30, 3-Cyclopropyl-1-[4-[4-[4-(3,5-difluorophenyl)sulfonylpiperidin-4-yl]-6-[(3S)-3-methylmorpholin-4-yl]pyrimidin-2-yl]phenyl]urea] | 25 nM |
| CC(C)NC(=O)Nc1ccc(-c2nc(N3CCOC[C@@H]3C)cc(C3(S(=O)(=O)CCCO)CC3)n2)cc1 [Example 31, 1-[4-[4-[1-(3-Hydroxypropylsulfonyl)cyclopropyl]-6-[(3S)-3-methylmorpholin-4-yl]pyrimidin-2-yl]phenyl]-3-propan-2-ylurea] | 4.52 nM |
| C[C@H]1COCCN1c1cc(C2(S(=O)(=O)CCCO)CC2)nc(-c2ccc(NC(=O)NC3CCC3)cc2)n1 [Example 31b, 3-cyclobutyl-1-[4-[4-[1-(3-hydroxypropylsulfonyl)cyclopropyl]-6-[(3S)-3-methylmorpholin-4-yl]pyrimidin-2-yl]phenyl]urea] | 4.97 nM |
| C[C@H]1COCCN1c1cc(C2(S(=O)(=O)CCCO)CC2)nc(-c2ccc(NC(=O)Nc3ccccn3)cc2)n1 [Example 31c, 1-[4-[4-[1-(3-hydroxypropylsulfonyl)cyclopropyl]-6-[(3S)-3-methylmorpholin-4-yl]pyrimidin-2-yl]phenyl]-3-pyridin-2-ylurea] | 1.31 nM |
| CC(C)CNC(=O)Nc1ccc(-c2nc(N3CCOC[C@@H]3C)cc(C3(S(=O)(=O)CCCO)CC3)n2)cc1 [Example 31d, 1-[4-[4-[1-(3-hydroxypropylsulfonyl)cyclopropyl]-6-[(3S)-3-methylmorpholin-4-yl]pyrimidin-2-yl]phenyl]-3-(2-methylpropyl)urea] | 9.55 nM |
| CCNC(=O)Nc1ccc(-c2nc(N3CCOC[C@@H]3C)cc(C3(S(=O)(=O)CCCO)CC3)n2)cc1 [Example 31e, 1-ethyl-3-[4-[4-[1-(3-hydroxypropylsulfonyl)cyclopropyl]-6-[(3S)-3-methylmorpholin-4-yl]pyrimidin-2-yl]phenyl]urea] | 1.07 nM |
| C[C@H]1COCCN1c1cc(C2(S(=O)(=O)CCCO)CC2)nc(-c2ccc(NC(=O)NCCO)cc2)n1 [Example 31f, 3-(2-hydroxyethyl)-1-[4-[4-[1-(3-hydroxypropylsulfonyl)cyclopropyl]-6-[(3S)-3-methylmorpholin-4-yl]pyrimidin-2-yl]phenyl]urea] | 1.6 nM |
| CNC(=O)Nc1ccc(-c2nc(N3CCOC[C@@H]3C)cc(C3(S(=O)(=O)CCCO)CC3)n2)cc1 [Example 31g, 1-[4-[4-[1-(3-hydroxypropylsulfonyl)cyclopropyl]-6-[(3S)-3-methylmorpholin-4-yl]pyrimidin-2-yl]phenyl]-3-methylurea] | 3.23 nM |
| C[C@H]1COCCN1c1cc(C2(S(=O)(=O)CCCO)CC2)nc(-c2ccc(NC(=O)Nc3ccc(C(F)(F)F)cc3)cc2)n1 [Example 31h, 1-[4-[4-[1-(3-hydroxypropylsulfonyl)cyclopropyl]-6-[(3S)-3-methylmorpholin-4-yl]pyrimidin-2-yl]phenyl]-3-[4-(trifluoromethyl)phenyl]urea] | 0.209 nM |
| C[C@H]1COCCN1c1cc(C2(S(=O)(=O)CCCO)CC2)nc(-c2ccc(NC(=O)NCCCO)cc2)n1 [Example 31i, 3-(3-hydroxypropyl)-1-[4-[4-[1-(3-hydroxypropylsulfonyl)cyclopropyl]-6-[(3S)-3-methylmorpholin-4-yl]pyrimidin-2-yl]phenyl]urea] | 3.26 nM |
| C[C@H]1COCCN1c1cc(C2(S(=O)(=O)CCCO)CC2)nc(-c2ccc(NC(=O)Nc3cnn(C)c3)cc2)n1 [Example 31j, 1-[4-[4-[1-(3-hydroxypropylsulfonyl)cyclopropyl]-6-[(3S)-3-methylmorpholin-4-yl]pyrimidin-2-yl]phenyl]-3-(1-methylpyrazol-4-yl)urea] | 1.03 nM |
| CCCNC(=O)Nc1ccc(-c2nc(N3CCOC[C@@H]3C)cc(C3(S(=O)(=O)CCCO)CC3)n2)cc1 [Example 31k, 3-[4-[4-[1-(3-hydroxypropylsulfonyl)cyclopropyl]-6-[(3S)-3-methylmorpholin-4-yl]pyrimidin-2-yl]phenyl]-1-propylurea] | 1.91 nM |
| C[C@H]1COCCN1c1cc(C2(S(=O)(=O)CCCO)CC2)nc(-c2ccc(NC(=O)NCCN(C)C)cc2)n1 [Example 31l, 3-(2-dimethylaminoethyl)-1-[4-[4-[1-(3-hydroxypropylsulfonyl)cyclopropyl]-6-[(3S)-3-methylmorpholin-4-yl]pyrimidin-2-yl]phenyl]urea] | 214 nM |
| C[C@H]1COCCN1c1cc(C2(S(=O)(=O)CCCO)CC2)nc(-c2ccc(NC(=O)NC(C)(C)CO)cc2)n1 [Example 31m, 3-(1-hydroxy-2-methylpropan-2-yl)-1-[4-[4-[1-(3-hydroxypropylsulfonyl)cyclopropyl]-6-[(3S)-3-methylmorpholin-4-yl]pyrimidin-2-yl]phenyl]urea] | 5.91 nM |
| CNC(=O)Nc1ccc(-c2nc(N3CCOCC3)cc(C3(C(=O)N(C)C)CC3)n2)cc1 [Example 32, N,N-Dimethyl-1-[2-[4-(methylcarbamoylamino)phenyl]-6-morpholin-4-ylpyrimidin-4-yl]cyclopropane-1-carboxamide] | 3.15 nM |
| CNC(=O)Nc1ccc(-c2nc(N3CCOCC3)cc(C3(C(=O)N4CCOC[C@@H]4C)CC3)n2)cc1 [Example 32a, 3-methyl-1-[4-[4-[1-[(3S)-3-methylmorpholine-4-carbonyl]cyclopropyl]-6-morpholin-4-ylpyrimidin-2-yl]phenyl]urea] | 42.5 nM |
| CNC(=O)Nc1ccc(-c2nc(N3CCOCC3)cc(C3(C(=O)NC4CC4)CC3)n2)cc1 [Example 32b, N-cyclopropyl-1-[2-[4-(methylcarbamoylamino)phenyl]-6-morpholin-4-ylpyrimidin-4-yl]cyclopropane-1-carboxamide] | 8.29 nM |
| CNC(=O)Nc1ccc(-c2nc(N3CCOCC3)cc(C3(C(=O)N(C)C4CC4)CC3)n2)cc1 [Example 32c, N-cyclopropyl-N-methyl-1-[2-[4-(methylcarbamoylamino)phenyl]-6-morpholin-4-ylpyrimidin-4-yl]cyclopropane-1-carboxamide] | 2.88 nM |
| CNC(=O)Nc1ccc(-c2nc(N3CCOCC3)cc(C3(C(=O)N4CCN(C)CC4)CC3)n2)cc1 [Example 32d, 3-methyl-1-[4-[4-[1-(4-methylpiperazine-1-carbonyl)cyclopropyl]-6-morpholin-4-ylpyrimidin-2-yl]phenyl]urea] | 13.1 nM |
| CN(C)C(=O)C1(c2cc(N3CCOCC3)nc(-c3ccc(NC(=O)NC4CC4)cc3)n2)CC1 [Example 33, 1-[2-[4-(Cyclopropylcarbamoylamino)phenyl]-6-morpholin-4-ylpyrimidin-4-yl]-N,N-dimethylcyclopropane-1-carboxamide] | 9.29 nM |
| C[C@H]1COCCN1C(=O)C1(c2cc(N3CCOCC3)nc(-c3ccc(NC(=O)NC4CC4)cc3)n2)CC1 [Example 33a, 3-cyclopropyl-1-[4-[4-[1-[(3S)-3-methylmorpholine-4-carbonyl]cyclopropyl]-6-morpholin-4-ylpyrimidin-2-yl]phenyl]urea] | 58.4 nM |
| O=C(Nc1ccc(-c2nc(N3CCOCC3)cc(C3(C(=O)NC4CC4)CC3)n2)cc1)NC1CC1 [Example 33b, N-cyclopropyl-1-[2-[4-(cyclopropylcarbamoylamino)phe-nyl]-6-morpholin-4-ylpyrimidin-4-yl]cyclopropane-1-carboxamide] | 12 nM |
| CN(C(=O)C1(c2cc(N3CCOCC3)nc(-c3ccc(NC(=O)NC4CC4)cc3)n2)CC1)C1CC1 [Example 33c, N-cyclopropyl-1-[2-[4-(cyclopropylcarbamoylamino)phe-nyl]-6-morpholin-4-ylpyrimidin-4-yl]-N-methylcyclopropane-1-carboxamide] | 2.58 nM |
| CN1CCN(C(=O)C2(c3cc(N4CCOCC4)nc(-c4ccc(NC(=O)NC5CC5)cc4)n3)CC2)CC1 [Example 33d, 3-cyclopropyl-1-[4-[4-[1-(4-methylpiperazine-1-carbonyl)cyclopropyl]-6-morpholin-4-ylpyrimidin-2-yl]phenyl]urea] | 133 nM |
| CN(C)C(=O)C1(c2cc(N3CCOCC3)nc(-c3ccc(NC(=O)NCCO)cc3)n2)CC1 [Example 34, 1-[2-[4-(2-Hydroxyethylcarbamoylamino)phenyl]-6-morpholin-4-ylpyrimidin-4-yl]-N,N-dimethylcyclopropane-1-carboxamide] | 4.05 nM |
| C[C@H]1COCCN1C(=O)C1(c2cc(N3CCOCC3)nc(-c3ccc(NC(=O)NCCO)cc3)n2)CC1 [Example 34a, 3-(2-hydroxyethyl)-1-[4-[4-[1-[(3S)-3-methylmorpholine-4-carbonyl]cyclopropyl]-6-morpholin-4-ylpyrimidin-2-yl]phenyl]urea] | 38.7 nM |
| O=C(NCCO)Nc1ccc(-c2nc(N3CCOCC3)cc(C3(C(=O)NC4CC4)CC3)n2)cc1 [Example 34b, N-cyclopropyl-1-[2-[4-(2-hydroxyethylcarbamoylamino)phe-nyl]-6-morpholin-4-ylpyrimidin-4-yl]cyclopropane-1-carboxamide] | 10.9 nM |
| CN(C(=O)C1(c2cc(N3CCOCC3)nc(-c3ccc(NC(=O)NCCO)cc3)n2)CC1)C1CC1 [Example 34c, N-cyclopropyl-1-[2-[4-(2-hydroxyethylcarbamoylamino)phe-nyl]-6-morpholin-4-ylpyrimidin-4-yl]-N-methylcyclopropane-1-carboxamide] | 3.45 nM |
| CN1CCN(C(=O)C2(c3cc(N4CCOCC4)nc(-c4ccc(NC(=O)NCCO)cc4)n3)CC2)CC1 [Example 34d, 3-(2-hydroxyethyl)-1-[4-[4-[1-(4-methylpiperazine-1-carbonyl)cyclopropyl]-6-morpholin-4-ylpyrimidin-2-yl]phenyl]urea] | 86.3 nM |
| CNC(=S)Nc1ccc(-c2nc(N3CCOC[C@@H]3C)cc(C3(S(C)(=O)=O)CC3)n2)cc1 [Example 35, 3-Methyl-1-[4-[4-[(3S)-3-methylmorpholin-4-yl]-6-(1-methylsulfonylcyclopropyl)pyrimidin-2-yl]phenyl]thiourea] | 5.31 nM |
